Tests used:
[1] = tested on: rat aorta rings with the vascular endothelium preserved; experiment: Phenylephrine-induced contracture in aorta rings with preserved endothelium; assay type: cell-based; settings: phenylephrine 10 μM; for IC50: Rattus norvegicus, with endothelium, six experiments, read-out: CI50 (μM) Average ± SEM
Protocol: (§1) Once the experiments have been carried out, the findings were subject to statistical analyses being expressed in average ±SEM as a percentage of the control value, and graphs were drawn up using the Sigma Plot 5.0 program to represent the data obtained. For the statistical analysis of the effects on the different muscle tissues, the difference was assessed among the concentrations of the same derivative, using the “t” Student test. In order to ascertain the difference among the derivatives, the one-way ANOVA test was used. The differences were considered as significant for p<0.05. The Cl50 was expressed as an average ±SEM of the values obtained for each experiment through non-linear regression based on the y=yo+ae^−bx equation.
(§2) Male Wistar rats weighing between 240-280 grams were sacrificed through dislocation of the cervical column under anesthesia using ethyl ether. The aorta artery was removed and transferred to a Petri dish containing modified Tyrode's solution whose composition is described in Table 3 below, where the vessel was cleaned and the connective tissue was removed. According to the scheduled Experiment Protocol, the vascular endothelium was removed mechanically with the assistance of a polyethylene rod. The artery was divided into rings with a width of 2-3 mm. Two hooks were placed in the wall of the vessel in order to record the tension generated by the muscle in a transversal direction. To do so, one of the hooks was tied to a fixed point in the chamber and the other to a power transducer (FT 03) for recording the isometric tension. The tension generated by the muscle was transformed into a digitized electric signal (Digidata 1322A) and stored in a computer for subsequent analysis using the Axoscope 8.0 program (Axon Instruments, Inc). The chamber was filled with Krebs solution, oxygenated and kept at a temperature of 37° C.
(§3) After stabilizing the preparation, approximately 120 minutes, the Experiment Protocol began. Initially, in order to identify the presence or absence of the vascular endothelium, the preparation was exposed to phenylephrine (10 μM) and when the contracture in response to this substance was stabilized, acetylcholine (10 μM) was added to the nutrient solution. Relaxation of over 80% in response to the acetylcholine indicated the full integrity of the endothelium and relaxation of less than 10% indicated the absence of endothelium. The tissues in which the relaxation intensity fell between >10% and <80% were discarded. In order to investigate the vasodilator effect of the different L294 analogs, they were added to the experiment chambers in rising concentration after the contracture stabilization of the vessel induced by phenylephrine. The tension registered after treatment with each of the L294 analog concentrations was normalized as a function of the amplitude of the contracture triggered by phenylephrine. For the purpose of comparing the potency of some of the L294 analogs, the Cl50 was determined for each experiment using the y=yo+ae^−bx equation and their mean was used for the statistical analysis.

rat papillary muscle = experiment: Isometric tension (electrically stimulated twitches) in papillary muscle; assay type: cell-based; settings: 10 to 100 μM; not significant
Protocol: as §1
After anesthesia with ethyl ether, male Wistar rats weighing between 240-280 grams were sacrificed through cervical dislocation. The heart was removed rapidly and the papillary muscle and the ventricular bundles were dissected in Tyrode's solution, whose composition is given in Table 2 below, at room temperature. The muscles were placed in vertical chambers with a capacity of 10 mL and fixed at their extremities: the lower portion to a hook located in the stimulation electrode fixation rod and the upper portion connected to a power transducer (Grass FT03) for recording the muscle twitches.
The muscles were stimulated electrically with supra-maximum voltage (50-60 V) through a stimulator (Grass S88) at a frequency of 1.0 Hz. The signals captured by the transducer were amplified (Cyberamp 380, Axon Instruments) and the isometric tension was digitized (Digidata 1322A, Axon Instruments) and stored on a computer. The screening and analysis of the experiment was handled through the Axoscope 8.0 program (Axon Instruments) (Sudo & cols., 2001). The chamber solution was bubbled continuously with a carbogenic mixture (95% O2/5% CO2) and kept at a temperature of 37° C.
After the stabilization of the muscle twitches (approximately 30 min) the records were carried out in the absence (control) and presence of rising concentrations (10 to 100 μM) of the different L294 analogs, diluted in DMSO. The records were carried out in pairs (two papillary and two ventricle) thus allowing the control experiments to be carried out in one of the pairs, meaning with rising quantities of DMSO equivalent to those used to dilute the substances. The reversibility of the effect of the substances was investigated at the end of each experiment, noting the recovery of the muscle twitches after bathing the preparation with Tyrode's solution.

[2] = tested on: aorta rings with no preserved endothelium; experiment: Phenylephrine-induced contracture in aorta rings without endothelium; assay type: cell-based, rat; settings: for IC50: Rattus norvegicus, phenylephrine 10 μM, without endothelium, six experiments, read-out: CI50 (MM) Average ± SEM
Protocol: as §1, §2, §3
The importance of the presence of vascular endothelium in the vasodilatory action of the L294 analogs was assessed in experiments in which these cells were removed mechanically. […] When the findings of the experiments without the endothelium were analyzed as a whole, the absence of the L790 effect was confirmed. […] The maximum relaxation caused by the L787 and L789 analogs was less than 50% of the control, and the other analogs caused relaxation in the following decreasing order of efficacy: L785>L788>L786. Once again, attention is drawn to the marked efficiency of the L785 and L788 analogs.

[3] = tested on: rat aorta rings with preserved endothelium; experiment: KCl-induced contracture in aorta rings with preserved endothelium; assay type: cell-based; settings: KCl 40 mM; for amplitude of the KCl contracture, with endothelium: 200 μM stated for L790; for IC50: Rattus norvegicus, with endothelium, six experiments, read-out: CI50 (μM) Average ± SEM
Protocol: as §1, §2, §3
The effects of the L294 analogs were investigated in rat aorta rings with preserved endothelium whose contracture was induced by increasing the extra-cellular concentration of KCl to 40 mM. Of the seven L294 analogs, this test was carried out only with the L785, L786, L789 and L790, in this group of experiments.

Row | IC50 [1] | IC50 [2] | IC50 [3] | SMILES | maximum alterations to the papillary muscle twitches (rat papillary muscle) | relaxation of phenylephrine contracture, without endothelium ([2]; 100 μM, result in words) | amplitude of the KCl contracture, with endothelium [3] | maximum inhibition levels of phenylephrine contracture, with endothelium [1]
1 | 10.2 ± 0.5 µM | 18.5 ± 3.6 µM | 34.1 ± 6.3 µM | CN(/N=C/c1cccs1)C(=O)c1ccc2c(c1)OCO2 [L785, 1,3-Benzodioxol-5-carboxylic acid, N-methyl-N′-[1-thiophene-2-yl-meth-(E)-ylidene]-hydrazide] | 86.5±4.0 % of the control | relaxation was almost total | 8.1±3.8 % of the control | 
2 | 134 ± 31 µM | 86.2 ± 7.1 µM | 127 ± 13.7 µM | O=C(c1ccc2c(c1)OCO2)N(Cc1ccccc1)/N=C/c1cccs1 [L786, 1,3-Benzodioxol-5-carboxylic acid, N-benzyl-N′-[1-thiophene-2-yl-meth-(E)-ylidene]-hydrazide] |  |  | 51.1±2.8 % of the control | 34.5±7.6%

Reference: patent US20080275105A1, “Selective Muscle Relaxant and Pharmaceutical Compositions” (UNIVERSIDADE FEDERAL DO RIO DE JANEIROUFRJ, priority 2004, published 2008)
